These results are taken from patent US11926625B2, “HPK1 antagonists and uses thereof” (Nimbus Saturn, Inc., priority 2021, dated 2024).

As usually defined, the IC50 is the concentration at which inhibition is half-maximal.

In this assay the target is T1, HPK1 (Homo sapiens, UniProt Q92918).
T1 construct: purchased Invitrogen
T1 sequence (Q92918 whole entry): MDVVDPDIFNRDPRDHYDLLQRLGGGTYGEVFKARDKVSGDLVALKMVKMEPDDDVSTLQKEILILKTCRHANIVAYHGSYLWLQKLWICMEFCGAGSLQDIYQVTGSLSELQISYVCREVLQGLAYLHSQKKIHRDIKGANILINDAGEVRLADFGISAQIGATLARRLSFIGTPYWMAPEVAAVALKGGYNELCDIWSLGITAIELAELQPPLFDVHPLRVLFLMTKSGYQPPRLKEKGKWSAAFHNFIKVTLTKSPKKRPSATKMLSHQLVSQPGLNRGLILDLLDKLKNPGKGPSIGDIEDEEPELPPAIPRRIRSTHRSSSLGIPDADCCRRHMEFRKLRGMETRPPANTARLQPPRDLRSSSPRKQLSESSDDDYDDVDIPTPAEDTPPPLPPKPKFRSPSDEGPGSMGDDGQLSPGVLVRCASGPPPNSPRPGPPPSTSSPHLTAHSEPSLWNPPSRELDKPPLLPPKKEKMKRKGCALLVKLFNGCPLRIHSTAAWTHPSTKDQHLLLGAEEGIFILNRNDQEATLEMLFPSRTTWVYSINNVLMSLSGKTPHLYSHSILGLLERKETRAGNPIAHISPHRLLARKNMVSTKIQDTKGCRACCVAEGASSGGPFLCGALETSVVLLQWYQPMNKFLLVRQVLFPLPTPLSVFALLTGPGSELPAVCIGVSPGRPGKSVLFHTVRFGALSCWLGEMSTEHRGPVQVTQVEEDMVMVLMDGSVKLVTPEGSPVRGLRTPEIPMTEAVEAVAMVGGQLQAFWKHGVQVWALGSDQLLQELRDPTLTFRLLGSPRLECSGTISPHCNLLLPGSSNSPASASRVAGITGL
In words: HPK1 biochemical enzyme assay (microfluidic mobility shift, Caliper). The following applies: 1.5 nM HPK1 (Invitrogen), 1 mM ATP, 30 min preincubation, 60 min at RT, top concentration 3 μM; read-out: HPK1 1000UMATP caliper IC50. Here is the method:
Example 20. HPK1 Biochemical Enzyme Assay
HPK1 biochemical enzyme assay: HPK1 enzyme inhibition was measured using a microfluidic mobility shift assay. Reactions were performed in a 384-well plate, containing 1.5 nM HPK1 (Invitrogen), in assay buffer (Cama Biosciences; pH 7.4). Test compounds were titrated in ten point curves (top final assay concentration 3 μM), and preincubated with enzyme/substrate mix for 30 min prior to initiation of the reaction by addition of ATP (1 mM final concentration) and substrate (1 μM final concentration; Carna Biosciences) diluted in assay buffer supplemented by MgCl2 (final assay concentration of 5 mM). Following 60 min incubation at RT, the reaction was terminated by addition of 60 μl/well termination buffer (Carna Biosciences) and signal determination using a Caliper EZ Reader (Perkin Elmer, UK).
For `CN1CCN(c2ccc(Nc3ccc(-c4ccnc(OCC(=O)N5CCCCC5)c4)c4c3C(=O)NC4)nc2)CC1` [Compound I-39, 7-[[5-(4-methylpiperazin-1-yl)-2-pyridyl]amino]-4-[2-[2-oxo-2-(1-piperidyl)ethoxy]-4-pyridyl] isoindolin-1-one], the half-inhibitory concentration (IC50) is less than 1 µM.
To `O=C1NCc2c(C3CC3)ncc(Nc3ccc(N4CCNCC4)cn3)c21` [Compound I-12, 4-cyclopropyl-7-[(5-piperazin-1-yl-2-pyridyl)amino]-2,3-dihydropyrrolo [3,4-c]pyridin-1-one] belongs 1 to 5 µM.
To `O=C1NCc2c(-c3ccncc3)ccc(Nc3ccc(N4CCNCC4)cn3)c21` [Compound I-27, 7-[(5-piperazin-1-yl-2-pyridyl)amino]-4-(4-pyridyl) isoindolin-1-one] belongs less than 1 µM.
To `CNc1nccc(-c2ccc(Nc3ccc(N4CCN(C)CC4)cn3)c3c2CNC3=O)n1` [Compound I-49, 4-[2-(methylamino)pyrimidin-4-yl]-7-[[5-(4-methylpiperazin-1-yl)-2-pyridyl]amino] isoindolin-1-one] belongs less than 1 µM; to `CN1CCN(c2ccc(Nc3ccc(-c4ccncc4)c4c3C(=O)NC4)nc2)CC1` [Compound I-25, 7-[[5-(4-methylpiperazin-1-yl)-2-pyridyl]amino]-4-(4-pyridyl) isoindolin-1-one], less than 1 µM.
With `CN1CCN(c2ccc(Nc3ccc(-c4ccnc(N5CCC6(CCCO6)CC5)c4)c4c3C(=O)NC4)nc2)CC1` [Compound I-38, 7-[[5-(4-methylpiperazin-1-yl)-2-pyridyl]amino]-4-[2-(1-oxa-8-azaspiro[4. 5]decan-8-yl)-4-pyridyl] isoindolin-1-one], the concentration for half-maximal inhibition (IC50) is 1 to 5 µM.
To `O=C1NCc2c(-c3ccncc3)ccc(Nc3ccc(N4CCC(O)CC4)cn3)c21` [Compound I-28, 7-[[5-(4-hydroxy-1-piperidyl)-2-pyridyl]amino]-4-(4-pyridyl) isoindolin-1-one] belongs less than 1 µM.
On to `CN1CCN(c2ccc(Nc3ccc(-c4ccnc(N5CCC6(CCOCC6)CC5)c4)c4c3C(=O)NC4)nc2)CC1` [Compound I-33, 7-[[5-(4-methylpiperazin-1-yl)-2-pyridyl]amino]-4-[2-(3-oxa-9-azaspiro[5. 5]undecan-9-yl)-4-pyridyl] isoindolin-1-one], for which the IC50 is 1 to 5 µM.
In the case of `CN1CCN(c2ccc(Nc3ccc(-c4ccnc(C#CC5CCCCC5)c4)c4c3C(=O)NC4)nc2)CC1` [Compound I-63, 4-(2-(cyclohexylethynyl)pyridin-4-yl)-7-((5-(4-methylpiperazin-1-yl)pyridin-2-yl)amino) isoindolin-1-one], the 50% inhibitory concentration (IC50) was less than 1 µM.
To `CN1CCN(c2ccc(Nc3ccc(-c4ccnc(C#C[C@H]5CCCO5)c4)c4c3C(=O)NC4)nc2)CC1` [Compound I-85] belongs less than 1 µM; to `CN1CCN(c2ccc(Nc3ccc(-c4ccnc(C#Cc5ccn(C)n5)c4)c4c3C(=O)NC4)nc2)CC1` [Compound I-67, 4-(2-((1-methyl-1H-pyrazol-3-yl)ethynyl)pyridin-4-yl)-7-((5-(4-methylpiperazin-1-yl)pyridin-2-yl)amino) isoindolin-1-one], less than 1 µM.
To `CN1CCN(c2ccc(Nc3ccc(-c4cncn4C)c4c3C(=O)NC4)nc2)CC1` [Compound I-54, 4-(3-methylimidazol-4-yl)-7-[[5-(4-methylpiperazin-1-yl)-2-pyridyl]amino] isoindolin-1-one] belongs less than 1 µM; to `CCc1cnc(C)cc1-c1ncc(Nc2ccc(N3CCNCC3)cn2)c2c1CNC2=O` [Compound I-21, 4-(5-ethyl-2-methyl-4-pyridyl)-7-[(5-piperazin-1-yl-2-pyridyl)amino]-2,3-dihydropyrrolo [3,4-c]pyridin-1-one], 1 to 5 µM; to `CN1CCN(c2ccc(Nc3ccc(-c4ccccc4)c4c3C(=O)NC4)nc2)CC1` [Compound I-29, 7-[[5-(4-methylpiperazin-1-yl)-2-pyridyl]amino]-4-phenyl-isoindolin-1-one], less than 1 µM.
`CC(=O)N1CCN(c2cc(-c3ccc(Nc4ccc(N5CCN(C)CC5)cn4)c4c3CNC4=O)ccn2)CC1` [Compound I-43, 4-[2-(4-acetylpiperazin-1-yl)-4-pyridyl]-7-[[5-(4-methylpiperazin-1-yl)-2-pyridyl]amino] isoindolin-1-one]: the IC50 was in the range of 1 to 5 µM.
As for `O=C1NCc2c(-c3ccncc3)ccc(Nc3ccc(N4CCOCC4)cn3)c21` [Compound I-26, 7-[(5-morpholino-2-pyridyl)amino]-4-(4-pyridyl) isoindolin-1-one], the half-maximal inhibitory concentration (IC50) is less than 1 µM.
Turning to `O=C1NCc2c(-c3cn(-c4ccccc4)cn3)ccc(Nc3ccc(N4CCNCC4)cn3)c21` [Compound I-80, 4-(1-phenyl-1H-imidazol-4-yl)-7-((5-(piperazin-1-yl)pyridin-2-yl)amino) isoindolin-1-one], the half-inhibitory concentration (IC50) was 1 to 5 µM.
With `CN1CCN(c2ccc(Nc3cnc(-c4ccncc4F)c4c3C(=O)NC4)nc2)CC1` [Compound I-22, 4-(3-fluoro-4-pyridyl)-7-[[5-(4-methylpiperazin-1-yl)-2-pyridyl]amino]-2,3-dihydropyrrolo [3,4-c]pyridin-1-one], the IC50 fell in the range of 1 to 5 µM.
To `O=C1NCc2c(-c3c(F)cccc3F)ncc(Nc3ccc(N4CCNCC4)cn3)c21` [Compound I-3, 4-(2,6-difluorophenyl)-7-[(5-piperazin-1-yl-2-pyridyl)amino]-2,3-dihydropyrrolo [3,4-c]pyridin-1-one] belongs 1 to 5 µM.
For `CN1CCN(c2ccc(Nc3ccc(-c4ccnc(N5CC6CCC(C5)O6)c4)c4c3C(=O)NC4)nc2)CC1` [Compound I-41], the concentration for half-maximal inhibition (IC50) was in the range of 1 to 5 µM.
To `O=C1NCc2c(-c3ccncc3)ncc(Nc3ccc(N4CCNCC4)cn3)c21` [Compound I-1, 7-[(5-piperazin-1-yl-2-pyridyl)amino]-4-(4-pyridyl)-2,3-dihydropyrrolo [3,4-c]pyridin-1-one] belongs less than 1 µM; to `CNc1cc(-c2ccc(Nc3ccc(N4CCN(C)CC4)cn3)c3c2CNC3=O)ccn1` [Compound I-52, 4-[2-(methylamino)-4-pyridyl]-7-[[5-(4-methylpiperazin-1-yl)-2-pyridyl]amino] isoindolin-1-one], less than 1 µM.
To `CC#Cc1cc(-c2ccc(Nc3ccc(N4CCN(C)CC4)cn3)c3c2CNC3=O)ccn1` [Compound I-60, 7-((5-(4-methylpiperazin-1-yl)pyridin-2-yl)amino)-4-(2-(prop-1-yn-1-yl)pyridin-4-yl)isoindolin-1-one] belongs less than 1 µM.
To `O=C1NCc2c(-c3cccnc3)ncc(Nc3ccc(N4CCNCC4)cn3)c21` [Compound I-7, 7-[(5-piperazin-1-yl-2-pyridyl)amino]-4-(3-pyridyl)-2,3-dihydropyrrolo [3,4-c]pyridin-1-one] belongs 1 to 5 µM; to `O=C1NCc2c(-c3ccccn3)ncc(Nc3ccc(N4CCNCC4)cn3)c21` [Compound I-4, 7-[(5-piperazin-1-yl-2-pyridyl)amino]-4-(2-pyridyl)-2,3-dihydropyrrolo [3,4-c]pyridin-1-one], 1 to 5 µM.
Consider `O=C1NCc2c(-c3ccncc3)ncc(Nc3ccc(N4CCOCC4)cn3)c21` [Compound I-14, 7-[(5-morpholino-2-pyridyl)amino]-4-(4-pyridyl)-2,3-dihydropyrrolo [3,4-c]pyridin-1-one], for which the IC50 was 1 to 5 µM.
To `O=C1NCc2c(-c3ccncc3)ccc(Nc3cc(C4CCOC4)n[nH]3)c21` (stereo not shown) [Compound I-36, 4-(4-pyridyl)-7-[(3-tetrahydrofuran-3-yl-1H-pyrazol-5-yl)amino] isoindolin-1-one] belongs less than 1 µM.
Consider `CN1CCN(c2ccc(Nc3ccc(-c4ccnc(C5CCOC5)c4)c4c3C(=O)NC4)nc2)CC1` (stereo not shown) [Compound I-76], for which the IC50 fell in the range of 1 to 5 µM.
To `O=C1NCc2c(-c3ncco3)ncc(Nc3ccc(N4CCNCC4)cn3)c21` [Compound I-10, 4-oxazol-2-yl-7-[(5-piperazin-1-yl-2-pyridyl)amino]-2,3-dihydropyrrolo [3,4-c]pyridin-1-one] belongs 1 to 5 µM; to `CN1CCN(c2ccc(Nc3ccc(-c4cccnc4)c4c3C(=O)NC4)nc2)CC1` [Compound I-30, 7-[[5-(4-methylpiperazin-1-yl)-2-pyridyl]amino]-4-(3-pyridyl) isoindolin-1-one], less than 1 µM.
To `CN1CCN(c2ccc(Nc3ccc(-c4ccnc(N5CCC6(CCNC6)CC5)c4)c4c3C(=O)NC4)nc2)CC1` [Compound I-42, 4-[2-(2,8-diazaspiro [4.5]decan-8-yl)-4-pyridyl]-7-[[5-(4-methylpiperazin-1-yl)-2-pyridyl]amino] isoindolin-1-one] belongs less than 1 µM; to `Cc1cc(-c2ncc(Nc3ccc(N4CCNCC4)cn3)c3c2CNC3=O)ccn1` [Compound I-9, 4-(2-methyl-4-pyridyl)-7-[(5-piperazin-1-yl-2-pyridyl)amino]-2,3-dihydropyrrolo [3,4-c]pyridin-1-one], 1 to 5 µM.
To `Cc1cc(-c2ccc(Nc3ccc(N4CCN(C)CC4)cn3)c3c2CNC3=O)cc(=O)[nH]1` [Compound I-57, 4-(6-methyl-2-oxo-1,2-dihydropyridin-4-yl)-7-((5-(4-methylpiperazin-1-yl)pyridin-2-yl)amino) isoindolin-1-one] belongs less than 1 µM.
For the compound `CN1CCN(c2ccc(Nc3ccc(-c4ccc(F)c(C5CCOCC5)c4)c4c3C(=O)NC4)nc2)CC1` [Compound I-87, 4-(4-fluoro-3-(tetrahydro-2H-pyran-4-yl)phenyl)-7-((5-(4-methylpiperazin-1-yl)pyridin-2-yl)amino) isoindolin-1-one], the IC50 fell in the range of 1 to 5 µM.
